Key:
[1] = Single dose crossover study in healthy volunteers, pharmacokinetics
Source text: A randomized, open-label 4-way crossover study in 16 healthy male and female subjects was held wherein said subjects were placed in a randomly assigned order and administered esketamine. Each subject was assigned to 1 of 4 treatment sequences according to a randomization code such that 4 subjects were assigned to each treatment sequence. There was a wash-out period of at least 7 days between dosing periods with doses consisting of either oral or intravenous esketamine hydrochloride. The study consisted of an eligibility screening period of 28 days, 4 study periods involving administration of a single dose of esketamine hydrochloride followed by safety assessments with blood sampling for PK purposes up to 72 hours after study drug administration, discharge at 72 hours after study drug administration and a follow-up visit 7-14 days after the last PK blood sample was taken on Day 4.

[2] = test system: human peripheral blood lymphocytes (HPBL)
Experimental: The clastogenic potential of (S)-norketamine was evaluated in the in vitro mammalian chromosome aberration test using human peripheral blood lymphocytes (HPBL) in both the absence and presence of an induced metabolic activation system (the 9000 g supernatant [S9] microsomal fraction of liver homogenate from rats exposed to phenobarbital/5,6-benzoflavone).
The study was conducted in 2 phases, with a preliminary toxicity test used to determine the appropriate concentrations for the definitive chromosomal aberration assay. Water was used as a negative (vehicle) control. In both phases, the cells were treated for 3 and 21 hours in the absence of S9 mix and for 3 hours in the presence of S9 mix. The mitotic index was assessed for all cultures to determine cytotoxicity. Ten concentrations, ranging from 2.62 to 260.16 μg/mL, were evaluated in the preliminary toxicity test. […] (S)-Norketamine concentrations of 93.66, 156.10 or 260.16 μg/mL were selected for metaphase analysis.

[3] = test system: human peripheral blood lymphocytes (HPBL); remark: listed apart in the source
Experimental: The clastogenic potential of esketamine was evaluated in the in vitro mammalian chromosome aberration test using human peripheral blood lymphocytes (HPBL) in both the absence and presence of an induced metabolic activation system (the 9000 g supernatant [S9] microsomal fraction of liver homogenate from rats exposed to Aroclor-1254).
The study was conducted in 2 phases, with a preliminary toxicity test used to determine the appropriate concentrations for the definitive chromosomal aberration assay. Water was used as a negative (vehicle) control. Toxicity (defined as ≥45% reduction in MI relative to the vehicle control) was evaluated at 9 concentrations, ranging from 0.0238 to 238 μg/ml, after exposure of HPBL to esketamine for 20 hours in the absence of S9 activation, or for 4 hours, either in the presence or absence of S9 activation, followed by a 16-hour recovery period.
The definitive chromosome aberration assay evaluated HPBL cells after exposure to esketamine for 20 hours in the absence of S9 activation, or for 4 hours, either in the presence of absence of S9 activation, followed by a 16-hour recovery. Positive controls for chromosomal aberrations in non-activated and S9-activated evaluations, respectively, consisted of mitomycin C (MMC, 0.6 and 0.3 μg/mL for the 4- and 20-hour exposures, respectively) and cyclophosphamide (CP, 2.5, 5, and 7.5 μg/mL). […] Initially, the doses selected for evaluation of chromosomal aberrations were 60, 120, and 238 μg/mL for the non-activated 4- and 20-hour treatment conditions; and 30, 60, and 200 μg/mL for the S9-activated 4-hour treatment condition.

[4] = test system: healthy male and female subjects; test: Single dose crossover study in healthy volunteers, adverse events; type: in vivo, human
Source text: A total of 128 TEAEs (treatment-emergent adverse event) were reported by 15 of 16 (94%) subjects of which 79 TEAEs reported by 14 of 16 (88%) subjects were to be related to the study drug. Overall, a total of 14 of 128 TEAEs reported by 4 (25%) subjects were of moderate severity and 114 of 128 TEAEs reported by 15 (94%) subjects were of mild severity. […] The most frequently occurring adverse events (reported more than twice) were headache, dizziness, hypokinesia, feeling abnormal, fatigue, euphoric mood inappropriate affect, nausea and hyperhidrosis. Table 4 presents the frequency of the most frequently reported related TEAEs as a percentage of the subjects that experienced an adverse effect per treatment.

Sprague Dawley rats [5] = test: Repeated dose 28 day study, toxicity; type: in vivo; details: 28 days oral gavage; males 6, 10, 30 and females 2, 10, 20 mg/kg/day
male Sprague Dawley rats = test: 7-day forced swim test; type: in vivo; details: 15 mg/kg i.p., single acute dose
Experimental: Groups of, 6-7 week old, male Sprague Dawley rats were administered esketamine by intraperitoneal injection and their behavioral despair assessed by a forced swim test. The animals, in cohorts of 10, were administered either a single dose of 15 mg/kg esketamine, 7 daily doses of either 7.5 or 15 mg/kg esketamine or a vehicle control, and the test performed 30 minutes after dosing. Statistical evaluation was performed using an ordinary One-Way ANOVA, t Test and an Uncorrected Fisher's LSD comparisons test.

[6] = Repeated dose 28 day study, toxicokinetics; details: for Dose normalized AUC0-inf: Day 1
Experimental: The objective of the study was to assess the potential toxicity, neurobehavioral effects, and toxicokinetics (TK) of esketamine when administered orally, via gavage, to Sprague Dawley rats for 28 days and to evaluate recovery during a 14-day drug-free period. Fifty male and 50 female rats were randomized into 4 groups (15/sex/Groups 1 and 4; 10/sex/Groups 2 and 3). Esketamine was administered via oral gavage once daily for 28 consecutive days to males at 0 (vehicle control), 6, 10 or 30 mg/kg/day and females at 0 (vehicle control), 2, 10 or 20 mg/kg/day in a dose volume of 10 mL/kg. Animals were observed until euthanized and necropsied on Day 29 (10/sex/group) or 43 (5/sex from Groups 1 and 4). Toxicity was evaluated based on mortality, clinical observations, body weights, food consumption, ophthalmology, motor activity, functional observational battery, clinical pathology (clinical chemistry, hematology, coagulation and urinalysis), organ weights, anatomic (macroscopic or microscopic) pathology. Toxicokinetic animals (3/sex/Group 1; 6/sex/Groups 2, 3, and 4) were similarly dosed and bled on Day 1 and during Week 4 for toxicokinetic analysis.

Sprague Dawley rats [7] = test: 104 week carcinogenicity study; type: in vivo; details: after 28 days at point of departure doses and at reduced doses after 730 days
Experimental: A 104 Week carcinogenicity study of esketamine administered via oral gavage to Sprague Dawley Rats is performed to evaluate the carcinogenic potential and determine the toxicokinetics of esketamine.
The study end-points include clinical observations, body weight changes, food consumption, bioanalytical toxicokinetic analysis, and anatomic macroscopic and microscopic pathology findings.

liver of Crl:CD(SD) rats = test: In vivo single cell gel electrophoresis (comet) assay, liver; details: for median % tail intensity (% TI) in liver vs vehicle control: 3 doses, p<0.001; for lower benchmark dose (BMDL50), single slide median Tail Intensity: PROAST v63.3
[8] = plasma analyte after single 20 mg oral solution of esketamine hydrochloride
[9] = Day 28, male rats, 6 mg/kg oral gavage once daily
[10] = Day 28, male rats, 10 mg/kg oral gavage once daily

Structure (SMILES): N[C@]1(c2ccccc2Cl)CCC[C@H](O)C1=O [(2S,6S)-OH-Norketamine, (2S,6S)-2-Amino-2-(2-chlorophenyl)-6-hydroxycyclohexanone]
- Cmax, Geometric mean (CV %) ([1]; plasma analyte after single 20 mg oral solution of esketamine hydrochloride, 15 subjects): 46.46 (28%) ng/ml

Structure (SMILES): N[C@]1(c2ccccc2Cl)CCCCC1=O [(S)-norketamine, (2S)-2-(2-Chlorophenyl)-2-(amino) cyclohexanone]
- Toxicity (mitotic index), preliminary toxicity test [2]: Toxicity was not observed at any dose
- clastogenicity, induction of structural and numerical chromosomal aberrations [2]: non-clastogenic
- AUC0-inf, Geometric mean (CV %) [1, 8]: 416.89 (19%) ng · h/ml
- AUC0-t, Geometric mean (CV %) [1, 8]: 404.96 (19%) ng · h/ml
- t1/2, Geometric mean (CV %) [1, 8]: 8.88 (26%) h
- t1/2, Geometric mean (CV %) ([1]; plasma analyte after single 100 mg oral tablet of esketamine hydrochloride): 9.27 (25%) h

Structure (SMILES): CO[C@@]12[C@H](COC(N)=O)C3=C(C(=O)C(C)=C(N)C3=O)N1C[C@@H]1N[C@@H]12 [MMC, mitomycin C]
- structural chromosomal aberrations, % of the cells [3]: 13.3%
- mean MI value ([3]; non-activated systems, positive control 0.6 and 0.3 μg/mL for 4- and 20-hour exposures): 9%

Structure (SMILES): CN[C@]1(c2ccccc2Cl)CCCCC1=O [esketamine, (2S)-2-(2-Chlorophenyl)-2-(methylamino) cyclohexanone]
- Cochran-Armitage test for dose response, structural aberrations [3]: positive for a dose response
- Toxicity (≥45% reduction in MI relative to the vehicle control), preliminary toxicity test [3]: Toxicity was not observed at any dose
- cytotoxicity (≥45% reduction in mitotic index relative to the vehicle control) ([3]; non-activated 4- and 20-hour treatment conditions): not observed at any esketamine dose
- related TEAE Dizziness, percentage of subjects ([4]; 0.3 mg/kg iv): 6%
- related TEAE Euphoric mood, percentage of subjects ([4]; 0.3 mg/kg iv): 19%
- related TEAE Fatigue, percentage of subjects ([4]; 0.3 mg/kg iv): 6%
- related TEAE Feeling abnormal, percentage of subjects ([4]; 0.3 mg/kg iv): 13%
- related TEAE Headache, percentage of subjects ([4]; 0.3 mg/kg iv): 19%
- related TEAE Hypokinesia, percentage of subjects ([4]; 0.3 mg/kg iv): 6%
- related TEAE Inappropriate affect, percentage of subjects ([4]; 0.3 mg/kg iv): 6%
- related TEAE Nausea, percentage of subjects ([4]; 0.3 mg/kg iv): 6%
- related TEAE Feeling abnormal, percentage of subjects ([4]; 20 mg oral solution): 19%
- related TEAE Headache, percentage of subjects ([4]; 20 mg oral solution): 19%
- related TEAE Inappropriate affect, percentage of subjects ([4]; 20 mg oral solution): 6%
- related TEAE Dizziness, percentage of subjects ([4]; 20 mg oral tablet): 13%
- related TEAE Fatigue, percentage of subjects ([4]; 20 mg oral tablet): 7%
- related TEAE Feeling abnormal, percentage of subjects ([4]; 20 mg oral tablet): 7%
- related TEAE Hyperhidrosis, percentage of subjects ([4]; 20 mg oral tablet): 7%
- related TEAE Dizziness, percentage of subjects ([4]; 100 mg oral tablet): 13%
- related TEAE Euphoric mood, percentage of subjects ([4]; 100 mg oral tablet): 13%
- related TEAE Feeling abnormal, percentage of subjects ([4]; 100 mg oral tablet): 20%
- related TEAE Headache, percentage of subjects ([4]; 100 mg oral tablet): 13%
- related TEAE Hyperhidrosis, percentage of subjects ([4]; 100 mg oral tablet): 7%
- related TEAE Hypokinesia, percentage of subjects ([4]; 100 mg oral tablet): 13%
- related TEAE Inappropriate affect, percentage of subjects ([4]; 100 mg oral tablet): 7%
- related TEAE Nausea, percentage of subjects ([4]; 100 mg oral tablet): 20%
- number of TEAEs related to the study drug ([4]; all treatments): 79
- total number of TEAEs ([4]; all treatments, 16 subjects): 128
- number of TEAEs of mild severity ([4]; of 128 TEAEs): 114
- number of TEAEs of moderate severity ([4]; of 128 TEAEs): 14
- effects on clinical signs, body weights, food consumption, ophthalmology, motor activity, functional observational battery, clinical pathology or anatomic pathology (Sprague Dawley rats [5]): no esketamine-related effects
- mortality (Sprague Dawley rats [5]): no mortality
- effect on immobility time (male Sprague Dawley rats): 42 % of control
- Dose normalized AUC0-inf ([6]; female rats, 2 mg/kg oral gavage): 29.0 (ng * h/ml)/(mg/kg)
- Dose normalized AUC0-inf ([6]; female rats, 10 mg/kg oral gavage): 44.0 (ng * h/ml)/(mg/kg)
- Dose normalized AUC0-inf ([6]; female rats, 20 mg/kg oral gavage): 49.8 (ng * h/ml)/(mg/kg)
- Dose normalized AUC0-inf ([6]; male rats, 6 mg/kg oral gavage): 17.2 (ng * h/ml)/(mg/kg)
- Dose normalized AUC0-inf ([6]; male rats, 10 mg/kg oral gavage): 18.1 (ng * h/ml)/(mg/kg)
- Dose normalized AUC0-inf ([6]; male rats, 30 mg/kg oral gavage): 19.5 (ng * h/ml)/(mg/kg)
- Dose normalized AUC0-t ([6]; Day 28, female rats, 2 mg/kg oral gavage once daily): 31.0 (ng * h/ml)/(mg/kg)
- Dose normalized AUC0-t ([6]; Day 28, female rats, 10 mg/kg oral gavage once daily): 51.3 (ng * h/ml)/(mg/kg)
- Dose normalized AUC0-t ([6]; Day 28, female rats, 20 mg/kg oral gavage once daily): 53.2 (ng * h/ml)/(mg/kg)
- Cmax [6, 9]: 113.1 ng/mL
- Dose normalized AUC0-t [6, 9]: 10.2 (ng * h/ml)/(mg/kg)
- AUC0-t [6, 10]: 179 ng·h/mL
- Dose normalized AUC0-t [6, 10]: 17.9 (ng * h/ml)/(mg/kg)
- Dose normalized AUC0-t ([6]; Day 28, male rats, 30 mg/kg oral gavage once daily): 19.2 (ng * h/ml)/(mg/kg)
- dose-normalized exposure, sex difference ([6]; after normalization for dose level differences): males had lower exposures than females
- exposure Day 28 compared to Day 1 ([6]; exception: Cmax in females higher on Day 28): Exposures were similar on Day 28 compared to Day 1
- increase of exposure with dose ([6]; females, 2 to 20 mg/kg/day): slightly greater than dose-proportional
- increase of exposure with dose ([6]; males, 6 to 30 mg/kg/day): generally dose-proportional
- genotoxic changes as shown in Examples 1 and 2 (Sprague Dawley rats [7]): not identified
- t1/2, Geometric mean (CV %) [1, 8]: 2.91 (37%) h
- macroscopic examination (liver of Crl:CD(SD) rats; after 3 doses of treatment): no test item related lesions
- group mean and median % TI values vs vehicle historical control range (liver of Crl:CD(SD) rats; female rats, 25 and 50 mg/kg/day): outside of the current vehicle historical control range
- median % tail intensity (% TI) in liver vs vehicle control (liver of Crl:CD(SD) rats; female rats, 25 and 50 mg/kg/day oral gavage): Statistically significant increases
- lower benchmark dose (BMDL50), single slide median Tail Intensity (liver of Crl:CD(SD) rats; female rats): 9.83 mg/kg/day
- DNA strand breaks in the liver (liver of Crl:CD(SD) rats; male and female rats, oral gavage): evidence of causing an increase
- Hedgehog cells in the liver (liver of Crl:CD(SD) rats; male or female rats, any dose level): No Hedgehog cells were observed
- group mean and median % TI values vs vehicle historical control range (liver of Crl:CD(SD) rats; male rats, 75 mg/kg/day): outside of the current vehicle historical control range
- median % tail intensity (% TI) in liver vs vehicle control (liver of Crl:CD(SD) rats; male rats, 75 mg/kg/day oral gavage): Statistically significant increases
- lower benchmark dose (BMDL50), single slide median Tail Intensity (liver of Crl:CD(SD) rats; male rats): 27.31 mg/kg/day

— patent US12478592B2, “Dosage regime with esketamine for treating neuropsychiatric or neurological conditions” (priority 2019, dated 2025)
